Reference: ChEMBL document CHEMBL1201862, “PubChem BioAssay data set” (2004)
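Each compound was tested at five concentrations against cells in 96-well plates for 48 hours. GI50 = concentration required for 50% inhibition of growth.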 Activity calls are given as the source filed them. No stated cut-off is given here; in the data, active = GI50 up to about 1.1 µM and inactive = higher.

Tests used:
Assay in all cases: inhibition of tumour cell growth, NCI panel, 48 h
A498 = test system: A498
CCRF-CEM = test system: CCRF-CEM
EKVX = test system: EKVX
HCT-116 = test system: HCT-116
HOP-62 = test system: HOP-62
Hs-578T = test system: Hs-578T
IGROV-1 = test system: IGROV-1
LOX IMVI = test system: LOX IMVI
M14 = test system: M14
MDA-MB-435 = test system: MDA-MB-435
MOLT-4 = test system: MOLT-4
Malme-3M = test system: Malme-3M
NCI-H226 = test system: NCI-H226
OVCAR-4 = test system: OVCAR-4
RPMI-8226 = test system: RPMI-8226
SK-MEL-2 = test system: SK-MEL-2
SK-MEL-5 = test system: SK-MEL-5
TK-10 = test system: TK-10
UO-31 = test system: UO-31
UACC-257 = test system: UACC-257

Row | SMILES | GI50 (A498) | GI50 (CCRF-CEM) | GI50 (EKVX) | GI50 (HCT-116) | GI50 (HOP-62) | GI50 (Hs-578T) | GI50 (IGROV-1) | GI50 (LOX IMVI) | GI50 (M14) | GI50 (MDA-MB-435) | GI50 (MOLT-4) | GI50 (Malme-3M) | GI50 (NCI-H226) | GI50 (OVCAR-4) | GI50 (RPMI-8226) | GI50 (SK-MEL-2) | GI50 (SK-MEL-5) | GI50 (TK-10) | GI50 (UO-31) | GI50 (UACC-257)
1 | CCOc1cc2c(cc1O)/C(=N\OC)C[C@@H]1[C@@H]2CC[C@]2(C)[C@@H](O)CC[C@@H]12 | 0.0908 µM (active) | 0.299 µM (active) | 10.8 µM (inactive) | < 0.0296 µM (active) | < 0.0461 µM (active) | 0.0698 µM (active) | 0.923 µM (active) | 0.122 µM (active) | 0.15 µM (active) | 0.0282 µM (active) | 0.255 µM (active) | 0.129 µM (active) | 0.106 µM (active) | 10.7 µM (inactive) | 0.167 µM (active) | < 0.0358 µM (active) | < 0.0253 µM (active) | > 32.9 µM (inactive) | 0.875 µM (active) | –
2 | Cc1nc(N)c(N2CCN(CN)CC2)c(O)n1 | > 100 µM (inactive) | > 100 µM (inactive) | > 100 µM (inactive) | > 100 µM (inactive) | > 100 µM (inactive) | > 100 µM (inactive) | – | > 100 µM (inactive) | > 100 µM (inactive) | > 100 µM (inactive) | > 100 µM (inactive) | > 100 µM (inactive) | > 100 µM (inactive) | > 100 µM (inactive) | > 100 µM (inactive) | > 100 µM (inactive) | – | > 100 µM (inactive) | > 100 µM (inactive) | > 100 µM (inactive)
3 | O=C(O)C1CC=CCC1C(=O)Nc1cccc(O)c1 (stereo unspecified) | > 100 µM (inactive) | – | > 100 µM (inactive) | > 100 µM (inactive) | > 100 µM (inactive) | > 100 µM (inactive) | > 100 µM (inactive) | > 100 µM (inactive) | > 100 µM (inactive) | > 100 µM (inactive) | > 100 µM (inactive) | > 100 µM (inactive) | > 100 µM (inactive) | > 100 µM (inactive) | > 100 µM (inactive) | > 100 µM (inactive) | > 100 µM (inactive) | > 100 µM (inactive) | > 100 µM (inactive) | > 100 µM (inactive)
4 | Cn1c(=O)cc(/N=N\c2ccc(Cl)c(Cl)c2)[nH]c1=O | > 100 µM (inactive) | 24.2 µM (inactive) | 24.5 µM (inactive) | 28.4 µM (inactive) | > 100 µM (inactive) | 33.4 µM (inactive) | 33 µM (inactive) | 19.2 µM (inactive) | 20.3 µM (inactive) | 21.1 µM (inactive) | 28.6 µM (inactive) | 16.1 µM (inactive) | > 100 µM (inactive) | 27.7 µM (inactive) | 28.3 µM (inactive) | 14.6 µM (inactive) | 35.2 µM (inactive) | 23.8 µM (inactive) | > 100 µM (inactive) | 33.5 µM (inactive)
5 | CC(=O)c1ccc(NCc2cc(O)ccc2O)cc1 | 36.1 µM (inactive) | 8.55 µM (inactive) | 30 µM (inactive) | 17.4 µM (inactive) | 20.6 µM (inactive) | 29.4 µM (inactive) | > 100 µM (inactive) | 24.8 µM (inactive) | 19.1 µM (inactive) | 21.1 µM (inactive) | 3.85 µM (inactive) | – | 34.7 µM (inactive) | 18.5 µM (inactive) | 5.38 µM (inactive) | 20.4 µM (inactive) | 18.3 µM (inactive) | 15.3 µM (inactive) | 11.4 µM (inactive) | 17.5 µM (inactive)
6 | c1cnc2c(c1)Nc1cnncc1S2 | > 100 µM (inactive) | > 100 µM (inactive) | > 100 µM (inactive) | > 100 µM (inactive) | > 100 µM (inactive) | > 100 µM (inactive) | > 100 µM (inactive) | > 100 µM (inactive) | > 100 µM (inactive) | > 100 µM (inactive) | > 100 µM (inactive) | > 100 µM (inactive) | 86.9 µM (inactive) | > 100 µM (inactive) | > 100 µM (inactive) | > 100 µM (inactive) | > 100 µM (inactive) | > 100 µM (inactive) | 84.1 µM (inactive) | > 100 µM (inactive)
7 | CC1=NN(c2ccc(S(=O)(=O)O)cc2)C2(C1)SCC(=O)N2c1nc2ccccc2s1 (stereo unspecified) | > 100 µM (inactive) | – | > 100 µM (inactive) | > 100 µM (inactive) | > 100 µM (inactive) | > 100 µM (inactive) | > 100 µM (inactive) | 66.1 µM (inactive) | > 100 µM (inactive) | > 100 µM (inactive) | 46.9 µM (inactive) | > 100 µM (inactive) | > 100 µM (inactive) | > 100 µM (inactive) | > 100 µM (inactive) | > 100 µM (inactive) | > 100 µM (inactive) | > 100 µM (inactive) | > 100 µM (inactive) | > 100 µM (inactive)
8 | CC(NC(=O)C(N)Cc1ccc(O)cn1)C(=O)O (stereo unspecified) | > 100 µM (inactive) | > 100 µM (inactive) | > 100 µM (inactive) | > 100 µM (inactive) | > 100 µM (inactive) | > 100 µM (inactive) | > 100 µM (inactive) | > 100 µM (inactive) | – | > 100 µM (inactive) | > 100 µM (inactive) | > 100 µM (inactive) | > 100 µM (inactive) | > 100 µM (inactive) | > 100 µM (inactive) | – | > 100 µM (inactive) | > 100 µM (inactive) | > 100 µM (inactive) | > 100 µM (inactive)
9 | CC(=O)O/C=C\OC1CCCC1 | > 100 µM (inactive) | 21.9 µM (inactive) | > 100 µM (inactive) | – | > 100 µM (inactive) | > 100 µM (inactive) | > 100 µM (inactive) | > 100 µM (inactive) | > 100 µM (inactive) | > 100 µM (inactive) | > 100 µM (inactive) | > 100 µM (inactive) | > 100 µM (inactive) | > 100 µM (inactive) | > 100 µM (inactive) | > 100 µM (inactive) | > 100 µM (inactive) | > 100 µM (inactive) | > 100 µM (inactive) | > 100 µM (inactive)
10 | N/N=C(\C(=O)Nc1ccc(Cl)cc1Cl)C(c1cnc2ccccc2n1)[N+](=O)[O-] (stereo unspecified) | > 100 µM (inactive) | > 100 µM (inactive) | > 100 µM (inactive) | 26.7 µM (inactive) | > 100 µM (inactive) | > 100 µM (inactive) | 8.47 µM (inactive) | > 100 µM (inactive) | > 100 µM (inactive) | > 100 µM (inactive) | – | > 100 µM (inactive) | > 100 µM (inactive) | > 100 µM (inactive) | > 100 µM (inactive) | > 100 µM (inactive) | > 100 µM (inactive) | > 100 µM (inactive) | 44.2 µM (inactive) | > 100 µM (inactive)
11 | COc1ccc(N2C(=O)C3c4[nH]c5ccc(OC)cc5c4C4CCC(C(C)C)CC4C3C2=O)cc1 (stereo unspecified) | 28 µM (inactive) | 7.73 µM (inactive) | > 93.3 µM (inactive) | > 55.3 µM (inactive) | 12 µM (inactive) | 12.1 µM (inactive) | > 38 µM (inactive) | > 100 µM (inactive) | 34.1 µM (inactive) | > 100 µM (inactive) | 28.8 µM (inactive) | – | > 100 µM (inactive) | > 55.1 µM (inactive) | > 100 µM (inactive) | > 59.4 µM (inactive) | > 100 µM (inactive) | > 100 µM (inactive) | > 100 µM (inactive) | > 100 µM (inactive)
12 | COc1ccc(CN2C(=O)C(=O)N(C)C2=O)c2ccccc12 | > 10 µM (inactive) | > 10 µM (inactive) | > 10 µM (inactive) | > 10 µM (inactive) | > 10 µM (inactive) | 1.55 µM (inactive) | > 10 µM (inactive) | > 10 µM (inactive) | > 10 µM (inactive) | > 10 µM (inactive) | > 10 µM (inactive) | > 10 µM (inactive) | > 10 µM (inactive) | > 10 µM (inactive) | > 10 µM (inactive) | > 10 µM (inactive) | > 10 µM (inactive) | > 10 µM (inactive) | > 10 µM (inactive) | –
13 | C/C(=C\CNc1ncnc2c1ncn2CCC(=O)OC(C)(C)C)CO | > 100 µM (inactive) | > 100 µM (inactive) | > 100 µM (inactive) | > 100 µM (inactive) | > 100 µM (inactive) | > 100 µM (inactive) | > 100 µM (inactive) | > 100 µM (inactive) | > 100 µM (inactive) | > 100 µM (inactive) | > 100 µM (inactive) | > 100 µM (inactive) | > 100 µM (inactive) | > 100 µM (inactive) | > 100 µM (inactive) | – | > 100 µM (inactive) | > 100 µM (inactive) | > 100 µM (inactive) | > 100 µM (inactive)
14 | Cc1occc1/C(S)=N\c1ccc(Cl)c(C(=O)OCC(F)(F)F)c1 | 15 µM (inactive) | 17.9 µM (inactive) | 25.5 µM (inactive) | 17.9 µM (inactive) | – | 35.6 µM (inactive) | 18.4 µM (inactive) | 18.4 µM (inactive) | 33.7 µM (inactive) | 20.3 µM (inactive) | 18.2 µM (inactive) | 29.8 µM (inactive) | 18.6 µM (inactive) | 17.9 µM (inactive) | 19 µM (inactive) | 22 µM (inactive) | 16.7 µM (inactive) | 20.2 µM (inactive) | 19.4 µM (inactive) | 23.4 µM (inactive)
